Assay: xn = mol fraction of the nth substance listed
Conditions: 298.15 K, Liquid

CCCCCCCCCl [1-chlorooctane] + CN(C)C=O
mass density [kg/m3]
Conditions | x2 = 0.1042 | x2 = 0.2009 | x2 = 0.2669 | x2 = 0.4023 | x2 = 0.4992 | x2 = 0.6035 | x2 = 0.6982 | x2 = 0.8002 | x2 = 0.9001
100 kPa | 871.7 | 875.3 | 877.9 | 884.2 | 889.7 | 896.8 | 904.7 | 914.9 | 927.7
2000 kPa | 873.1 | 876.7 | 879.4 | 885.6 | 891 | 898.2 | 906 | 916.1 | 928.8
4000 kPa | 874.7 | 878.2 | 880.8 | 887.1 | 892.5 | 899.6 | 907.5 | 917.4 | 930.2
6000 kPa | 876.1 | 879.7 | 882.3 | 888.5 | 893.9 | 900.9 | 908.8 | 918.8 | 931.4
7900 kPa | 877.6 | – | – | – | – | – | – | – | –
8000 kPa | – | 881.1 | 883.7 | 889.9 | 895.3 | 902.3 | 910.1 | 920.1 | 932.6
9900 kPa | – | – | – | – | – | – | – | 921.4 | –
10000 kPa | 879.1 | 882.7 | 885.2 | 891.4 | 896.8 | 903.7 | 911.4 | – | 933.9
12000 kPa | 880.6 | 884.1 | 886.6 | 892.8 | 898.1 | 905 | 912.7 | 922.7 | 935.1
13900 kPa | – | 885.4 | – | – | – | – | – | – | –
14000 kPa | 882 | – | 887.9 | 894.1 | 899.4 | 906.3 | 914 | 924 | 936.3
15900 kPa | 883.2 | – | 889.2 | – | 900.7 | – | – | – | –
16000 kPa | – | 886.4 | – | 895.4 | – | 907.7 | 915.4 | 925 | 937.6
17900 kPa | – | – | – | 896.7 | – | – | – | – | 938.6
18000 kPa | 884.6 | 888.2 | 890.6 | – | 902 | 908.9 | 916.5 | 926.3 | –
20000 kPa | 886 | – | 891.8 | 898 | 903.3 | 910.3 | 917.7 | 927.5 | 939.8
20100 kPa | – | 889.6 | – | – | – | – | – | – | –

From the NIST ThermoML archive (doi:10.1021/je700096m)
